Paper PMC7849180 (Frontiers in Pharmacology, 2020)

Experiments:
[1] = system: JNK; experiment: Phosphorylation of c-Jun by JNK; format: biochemical
Description: Suzhou Zelgen Biopharmaceuticals Co., Ltd. Jaktinib Hydrochloride Tablets Chemical Drug Class 1 New Drug has been completed. The ongoing toxicity tests include a long-term 39-week toxicity test in Beagle dogs by oral administration, a reproductive toxicity test in rats during the teratogenic sensitive period, and a reproductive toxicity test in rabbits during the teratogenic sensitive period.
Preclinical Pharmacodynamic Study
Study on the in vitro Pharmacodynamic Effects of ZG0163 at the […]
In this study, the effects of ZG0163 was similar to those of positive control compounds, ZG0164 and ZG0178.
Study on the in vitro Pharmacodynamic Effects of ZG0163 at the Cellular Level (Ba/F3-EpoR-JAK2V617F cells)
JAK2V617F cell line, the compound ZG0163 was able to induce apoptosis of pathogenic cells and eliminate abnormal cell proliferation by inhibiting the JAK-STAT signaling pathway, thus achieving treatment efficacy in myeloproliferative neoplasms. […]
cell line, manifested as significant inhibition of phosphorylation of JAK2 and its downstream signaling proteins ERK and STAT5. The effects of ZG0163 was similar to those of positive control compounds, ZG0164 and ZG0178.
EpoR-JAK2V617F, which was similar to those of positive control compounds, ZG0164

[2] = Plasma pharmacokinetics, multiple ascending dose (MAD), 10 days; format: in vivo, human
Method: MAD study was conducted after evaluating the tolerance of the single dose 100 mg cohort. In MAD part, volunteers were designed into five cohorts (100 mg q24h, 150 mg q24h, 100 mg q12h, 200 mg q24h, 150 mg q12h). […] The MAD part was initiated after the safety and tolerance evaluation from SAD 100 mg cohorts. Progression to higher MAD doses was allowed after review the safety data of the prior MAD cohorts.
For MAD cohorts, blood samples were collected at 0, 0.25, 0.5, 1, 1.5, 2, 3, 4, 5, 6, 8 and 12 h on day 1; 0 h on day 2, 3, 4, 6 and 7; 0, 0.25, 0.5, 1, 1.5, 2, 3, 4, 5, 6, 8, 12, 24, 36 and 48 h on day 10. In food effect cohort, blood samples were collected at 0, 0.25, 0.5, 1, 1.5, 2, 3, 4, 5, 6, 8, 12, 24, 36, 48, 72, 96 and 120 h in period one of group A; 0, 0.25, 0.5, 1, 1.5, 2, 3, 4, 5, 6, 8, 12, 24, 36 and 48 h in period two of group A and the two periods of group B. Blood samples were centrifuged at 3,000 rpm for 10 min at 2–8 °C and stored at -80 °C until liquid chromatography-mass spectrophotometry (LC-MS/MS) analysis. Urine and feces samples were collected in period one of group A of food effect cohort with the intervals 0, 0–6, 6–12, 12–24, 24–48, 48–72, 72–96, 96–120 and 0–120 h, respectively. […]

Which “effect on phosphorylation of c-Jun by JNK” value [1] does the source give for Jaktinib here?
Its value is “no significant effects”.

And the “accumulation factor Rac (90% CI)” value ([2]; 100 mg q12h)?
Its value is 1.24.

What about the “Cmax, geometric mean (CV%)” value ([2]; 100 mg q12h, Day 1) of the same substance?
The value was 204.68 (36.2) ng/ml.

And the “Tmax, median (min–max)” value ([2]; 100 mg q12h, Day 1)?
Its value is 1.50 (0.50–4.00) h.

What about the “Cmax, geometric mean (CV%)” value ([2]; 100 mg q12h, Day 10) of the same substance?
Its value is 226.87 (33.2) ng/ml.

And the “Cmin,ss, geometric mean (CV%)” value ([2]; 100 mg q12h, Day 10)?
Its value is 27.565 (96.3) ng/ml.

And the “Fluctuation, geometric mean (CV%)” value ([2]; 100 mg q12h, Day 10)?
The value was 204.463 (31.3) %.

What about the “Tmax, median (min–max)” value ([2]; 100 mg q12h, Day 10) of the same substance?
The value was 3.00 (0.50–4.00) h.

What about the “accumulation factor Rac (90% CI)” value ([2]; 100 mg q24h) of the same substance?
The value was 0.98.

And the “Cmax, geometric mean (CV%)” value ([2]; 100 mg q24h, Day 1)?
Its value is 182.68 (73.4) ng/ml.

And the “Tmax, median (min–max)” value ([2]; 100 mg q24h, Day 1)?
Its value is 2.00 (1.00–4.00) h.

What about the “Cmax, geometric mean (CV%)” value ([2]; 100 mg q24h, Day 10) of the same substance?
The value was 150.84 (76.7) ng/ml.

And the “Cmin,ss, geometric mean (CV%)” value ([2]; 100 mg q24h, Day 10)?
Its value is 8.217 (169.4) ng/ml.

And the “Fluctuation, geometric mean (CV%)” value ([2]; 100 mg q24h, Day 10)?
The value was 290.146 (45.7) %.

What about the “Tmax, median (min–max)” value ([2]; 100 mg q24h, Day 10) of the same substance?
Its value is 1.50 (1.00–4.00) h.

And the “accumulation factor Rac (90% CI)” value ([2]; 150 mg q12h)?
Its value is 1.38.

What about the “Cmax, geometric mean (CV%)” value ([2]; 150 mg q12h, Day 1) of the same substance?
Its value is 295.08 (52.6) ng/ml.

What about the “Tmax, median (min–max)” value ([2]; 150 mg q12h, Day 1) of the same substance?
The value was 2.00 (1.00–4.00) h.

And the “Cmax, geometric mean (CV%)” value ([2]; 150 mg q12h, Day 10)?
The value was 470.78 (38.2) ng/ml.

What about the “Cmin,ss, geometric mean (CV%)” value ([2]; 150 mg q12h, Day 10) of the same substance?
Its value is 26.868 (39.2) ng/ml.

What about the “Fluctuation, geometric mean (CV%)” value ([2]; 150 mg q12h, Day 10) of the same substance?
Its value is 274.265 (17.3) %.

And the “Tmax, median (min–max)” value ([2]; 150 mg q12h, Day 10)?
Its value is 1.25 (0.50–2.00) h.

And the “accumulation factor Rac (90% CI)” value ([2]; 150 mg q24h)?
Its value is 1.16.

What about the “Cmax, geometric mean (CV%)” value ([2]; 150 mg q24h, Day 1) of the same substance?
The value was 236.94 (88.6) ng/ml.

What about the “Tmax, median (min–max)” value ([2]; 150 mg q24h, Day 1) of the same substance?
Its value is 3.00 (1.00–6.00) h.

What about the “Cmax, geometric mean (CV%)” value ([2]; 150 mg q24h, Day 10) of the same substance?
Its value is 250.23 (70.3) ng/ml.

What about the “Cmin,ss, geometric mean (CV%)” value ([2]; 150 mg q24h, Day 10) of the same substance?
The value was 14.342 (71.1) ng/ml.

And the “Fluctuation, geometric mean (CV%)” value ([2]; 150 mg q24h, Day 10)?
The value was 281.461 (29.1) %.

And the “Tmax, median (min–max)” value ([2]; 150 mg q24h, Day 10)?
The value was 2.50 (1.00–5.00) h.

What about the “accumulation factor Rac (90% CI)” value ([2]; 200 mg q24h) of the same substance?
Its value is 0.94.

What about the “Cmax, geometric mean (CV%)” value ([2]; 200 mg q24h, Day 1) of the same substance?
The value was 327.37 (36.6) ng/ml.

What about the “Tmax, median (min–max)” value ([2]; 200 mg q24h, Day 1) of the same substance?
Its value is 2.50 (1.50–4.00) h.

What about the “Cmax, geometric mean (CV%)” value ([2]; 200 mg q24h, Day 10) of the same substance?
The value was 296.88 (58.3) ng/ml.

And the “Cmin,ss, geometric mean (CV%)” value ([2]; 200 mg q24h, Day 10)?
Its value is 10.798 (125.4) ng/ml.

And the “Fluctuation, geometric mean (CV%)” value ([2]; 200 mg q24h, Day 10)?
The value was 390.098 (38.5) %.

And the “Tmax, median (min–max)” value ([2]; 200 mg q24h, Day 10)?
The value was 3.00 (1.50–4.00) h.

What about the “time to steady state” value ([2]; continuous administration, trough concentrations) of the same substance?
Its value is “approximately 4 days”.
